{"source": "ChEMBL document CHEMBL5528064", "about": "“Invention of MK-7845, a SARS-CoV-2 3CL Protease Inhibitor Employing a Novel Difluorinated Glutamine Mimic” (J Med Chem, 2024)", "key": {"[1]": {"test_system": "SARS-CoV-2", "assay": "Antiviral activity against replicon RNA harboring SARS-CoV-2 infected in human A549 cells assessed as inhibition of viral growth measured 40 hrs post treatment", "type": "functional, organism-based", "conditions": "Severe acute respiratory syndrome coronavirus 2, A549, 40 h"}, "[2]": {"assay": "Inhibition of SARS-CoV-2 Omicron 3CLpro P132H mutant expressed in Escherichia coli (DE3) competent cells using CP488-ESATLQSGLRKAK-(CPQ2)-NH2 as substrate preincubated for 30 mins followed by substrate addition and measured after 4 hrs by FRET assay", "design": "species or system Severe acute respiratory syndrome coronavirus 2"}, "[3]": {"test_system": "SARS-CoV-2", "assay": "Antiviral activity against SARS-CoV-2 Omicron B.1.1.529 harboring 3CLpro R346K mutant infected in human A549-hACE2-TMPRSS2 cells assessed as inhibition of virus induced cytopathic effect incubated for 72 hrs by celltiter glo assay", "type": "functional, organism-based, Severe acute respiratory syndrome coronavirus 2"}, "[4]": {"test_system": "SARS-CoV-2", "assay": "Antiviral activity against replicon RNA harboring SARS-CoV-2 infected in human A549 cells assessed as inhibition of viral growth", "type": "functional, organism-based", "conditions": "Severe acute respiratory syndrome coronavirus 2, A549"}}, "data": [{"smiles": "COC(=O)N[C@H](C(=O)N1C[C@H]2[C@@H]([C@H]1C(=O)N[C@@H](CCC(C)(F)F)C(=O)C(=O)NC1CC1)C21CCOCC1)C(C)(C)C", "values": [{"measurement": "IC50", "setting": "[1]", "value": 32, "unit": "nM"}]}, {"smiles": "CNC(=O)C(=O)[C@H](CCC(C)(F)F)NC(=O)[C@@H]1[C@H]2CCC[C@H]2CN1C(=O)[C@@H](NC(=O)OC)C(C)(C)C", "values": [{"measurement": "IC50", "setting": "[1]", "value": 15, "unit": "nM"}, {"measurement": "IC50", "setting": "[2]", "value": 15, "unit": "nM"}, {"measurement": "IC50", "setting": "[3]", "value": 215, "unit": "nM"}]}, {"smiles": "CNC(=O)C(=O)[C@H](CCC(C)(F)F)NC(=O)[C@@H]1C[C@H](C(F)(F)F)CCN1C(=O)[C@@H](NC(=O)OC)C(C)(C)C", "values": [{"measurement": "IC50", "setting": "[1]", "value": 12, "unit": "nM"}]}, {"smiles": "COC(=O)N[C@H](C(=O)N1CC2(C[C@H]1C(=O)N[C@@H](CCC(C)(F)F)C(=O)C(=O)NC1CC1)CC2(F)F)C(C)(C)C", "note": "(stereo not given in full)", "values": [{"measurement": "IC50", "setting": "[1]", "value": 33, "unit": "nM"}]}, {"smiles": "COC(=O)N[C@H](C(=O)N1C[C@@H]2CCC[C@@H]2[C@H]1C(=O)N[C@@H](CCC(C)(F)F)C(=O)C(=O)NC1CC1)C(C)(C)C", "values": [{"measurement": "IC50", "setting": "[1]", "value": 18, "unit": "nM"}]}, {"smiles": "CC(C)(C)NC(=O)N[C@H](C(=O)N1C[C@H]2[C@@H]([C@H]1C(=O)N[C@@H](C[C@@H]1CCNC1=O)C(=O)C(N)=O)C2(C)C)C(C)(C)C", "values": [{"measurement": "IC50", "setting": "[4]", "value": 7.5, "unit": "µM"}]}, {"smiles": "COC(=O)N[C@H](C(=O)N1CC[C@@H](C(F)(F)F)C[C@H]1C(=O)N[C@@H](CCC(C)(F)F)C(=O)C(=O)NC1CC1)C(C)(C)C", "values": [{"measurement": "IC50", "setting": "[1]", "value": 19, "unit": "nM"}]}, {"smiles": "COC(=O)N[C@H](C(=O)N1CCC2(CC2)C[C@H]1C(=O)N[C@@H](CCC(C)(F)F)C(=O)C(=O)NC1CC1)C(C)(C)C", "values": [{"measurement": "IC50", "setting": "[1]", "value": 20, "unit": "nM"}]}]}
